# Measurements published in US20260258084A1, “New Peptides as Selective IL-23 Receptor Antagonists” (Sanofi, priority 2022, published 2026).
# Where two headings read alike, the source gives them in different places. Starred links: 1 amine or outer side, 2 acyl side, 3 side chain; linkers in the order of their positions; H or OH if unused. Positions of bridges follow the written chain, without caps; N, C: chain ends. Non-standard residues stand in square brackets, D forms with d. Residues, ends and D or L forms follow the SMILES beside them. *: point of attachment. X3 = CN(CCCCC(=O)N[C@@H](CS[*:2])C(=O)[*:1])[*:3]; X1 = O=C(CCCCN[*:3])N[C@@H](CS[*:2])C(=O)[*:1]; αMeLys(Me2) = CN(C)CCCC[C@](C)(N)C(=O)O; X2 = CN(C)[C@@H](CCCCN[*:1])C(=O)[*:2]; 2Nal = N[C@@H](Cc1ccc2ccccc2c1)C(=O)O; AEF = NCCOc1ccc(C[C@H](N)C(=O)O)cc1; 3Pal = N[C@@H](Cc1cccnc1)C(=O)O; X4 = CN(CCCCCC(=O)[*:2])[*:1]; αMeL = CC(C)C[C@](C)(N)C(=O)O; Thp = NC1(C(=O)O)CCOCC1; Me2NCH2CH2 = CN(C)CC*; Aib = CC(C)(N)C(=O)O; Ava = NCCCCC(=O)O; Sar = CNCC(=O)O
# Experiments:
# [1] = system: Pancreatin; experiment: Protease stability in simulated intestinal fluid (Pancreatin-SIF, FaSSIF); type: in vitro ADME; conditions: 1 μM peptide, 37° C.; for remaining at 1 h, 1 µM: 60 min, read-out: FaSSIF 60 (min), remaining percent of peptide; for remaining at 2 h, 1 µM: 120 min, read-out: FaSSIF 120 (min), remaining percent of peptide; for remaining at 4 h, 1 µM: 240 min, read-out: FaSSIF 240 (min), remaining percent of peptide
# Summary of the method: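 Peptide (1 μM final) was incubated at 37° C in simulated intestinal fluid containing pancreatin (1 mg per 10 mL SIF concentrate). Samples were quenched with ethanol/0.1% HCOOH at 0, 60, 120 and 240 min and analysed by LC-MS/MS. Percent remaining is the peak area relative to time 0 (100%).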
# [2] = system: T1, Pepsin; experiment: Protease stability in simulated gastric fluid (Pepsin-SGF, FaSSGF); type: in vitro ADME; conditions: simulated gastric fluid with pepsin (Pepsin-SGF), 60 min, 1 μM peptide, 37° C., read-out: FaSSGF 60 (min), remaining percent of peptide
# T1 construct: purchased Merck Millipore
# Summary of the method: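 Peptides at 1 μM final in pepsin-containing SGF at 37° C, sampled at 0, 60, 120 and 240 min, quenched with ethanol (0.1% HCOOH). Analysed by LCMS/MS; percent remaining from peak area relative to time 0 (set to 100%).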
# [3] = target: T2, human interleukin-23 receptor (recombinant human IL-23R-Fc chimera) (Homo sapiens, UniProt Q5VWK5); experiment: Human ELISA IL23/IL23R (assay for specific human IL23R antagonists); type: binding; conditions: Table 10; read-out: Human ELISA IL23/IL23R IC50
# T2 construct: Fc (IgG Fc fusion)
# Summary of the method: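 Plates coated overnight at 4 °C with human IL23 ([…]), blocked, then serially diluted peptides added with recombinant human IL-23R-Fc (0.1 μg/ml final) for 60 min at room temperature. Bound receptor detected with anti-human IgG1-HRP and fluorogenic peroxidase substrate.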
# [4] = Chemical stability assessment of peptides (relative purity loss); type: physicochemical; conditions: 24 hours at 37° C.; for Chemical stability (relative purity loss) Buffer pH 1.2: 50 mM HCl pH 1.2 + acetonitrile (1:1); for Chemical stability (relative purity loss) Buffer pH 6.5: 50 mM phosphate buffer pH 6.5 + acetonitrile (1:1); for Chemical stability (relative purity loss) Buffer pH 7.4: 50 mM phosphate buffer pH 7.4 + acetonitrile (1:1)
# Summary of the method: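 Peptide solutions at 1 mg/ml (purity-corrected) in 1:1 acetonitrile with 50 mM HCl pH 1.2, or 50 mM phosphate pH 6.5 or pH 7.4, held 24 hours at 2° C. and 37° C. Supernatants analysed by UHPLC-UV; relative purity loss taken as percent drop in peak-area purity from 0 to 24 hours at 37° C.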
# [5] = Solubility testing of peptides at different pH; type: physicochemical; conditions: target concentration 1 mg/ml, 2 hours agitation
# Summary of the method: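 Solid obtained by drying down DMSO stock was taken up at 1 mg/mL in 50 mM HCl pH 1.2 or 50 mM phosphate pH 6.5, 7.4 or 9.0, agitated gently for 2 h, then filtered (0.45 μm). Solubility by UPLC-UV peak area against a DMSO reference standard curve, corrected for extinction coefficients.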
# [6] = 50 mM HCl buffer, 50 mM HCl pH 1.2, read-out: Solubility Buffer pH 1.2
# [7] = 50 mM phosphate buffer pH 6.5, read-out: Solubility Buffer pH 6.5
# [8] = 50 mM phosphate buffer pH 7.4, read-out: Solubility Buffer pH 7.4
# [9] = 50 mM phosphate buffer pH 9.0, read-out: Solubility Buffer pH 9.0
compound,measurement,setting,value
CC(C)C[C@]1(C)NC(=O)[C@H](Cc2ccc3ccccc3c2)NC(=O)[C@H](Cc2ccc(OCCN(C)C)cc2)NC(=O)[C@@H]2CSSC[C@H](NC(=O)CCCCNC(=O)CC[C@@H](C(=O)N[C@@H](CC(N)=O)C(=O)N[C@@H](CC(N)=O)C(N)=O)NC1=O)C(=O)N[C@@H](CC(N)=O)C(=O)N[C@@H]([C@@H](C)O)C(=O)N[C@@H](Cc1c[nH]c3ccccc13)C(=O)N[C@@H](CCC(N)=O)C(=O)N2 [compound 27] ([Ava]CNTWQCY(Me2NCH2CH2)[2Nal][αMeL]ENN-NH2; disulfide 2-7; lactam N-11),"remaining at 1 h, 1 µM",[1],81%
same,"remaining at 2 h, 1 µM",[1],82%
same,"remaining at 4 h, 1 µM",[1],73%
same,"remaining at 1 h, 1 µM",[2],82%
same,IC50,[3],0.4 nM
same,Chemical stability (relative purity loss) Buffer pH 1.2,[4],23.8%
same,Chemical stability (relative purity loss) Buffer pH 6.5,[4],0.0%
same,Chemical stability (relative purity loss) Buffer pH 7.4,[4],8.7%
same,solubility at 2 h,[5]; [6],≥ 890 µg/mL
same,solubility at 2 h,[5]; [7],≥ 870 µg/mL
same,solubility at 2 h,[5]; [8],810 µg/mL
same,solubility at 2 h,[5]; [9],270 µg/mL
CC(=O)N[C@H]1CCCCNC(=O)[C@@H]2CSSC[C@H](NC(=O)[C@H](CCC(N)=O)NC(=O)[C@H](Cc3c[nH]c4ccccc34)NC1=O)C(=O)N[C@@H](Cc1ccc(OCCN(C)C)cc1)C(=O)N[C@@H](Cc1ccc3ccccc3c1)C(=O)NC(C)(C)C(=O)N[C@H](C(=O)N[C@@H](C)C(=O)NCC(N)=O)CCC(=O)NCCCCC(=O)N2 [compound 32] (Ac-KWQCY(Me2NCH2CH2)[2Nal][Aib]EAG-NH2; linker 1-4-8 via X1),"remaining at 1 h, 1 µM",[1],89%
same,"remaining at 2 h, 1 µM",[1],77%
same,"remaining at 4 h, 1 µM",[1],55%
same,"remaining at 1 h, 1 µM",[2],78%
same,IC50,[3],0.48 nM
same,Chemical stability (relative purity loss) Buffer pH 1.2,[4],10.5%
same,Chemical stability (relative purity loss) Buffer pH 6.5,[4],0.0%
same,Chemical stability (relative purity loss) Buffer pH 7.4,[4],1.0%
same,solubility at 2 h,[5]; [6],740 µg/mL
same,solubility at 2 h,[5]; [7],≥ 880 µg/mL
same,solubility at 2 h,[5]; [8],≥ 870 µg/mL
same,solubility at 2 h,[5]; [9],170 µg/mL
CC(=O)N[C@H]1CCCCNC(=O)[C@@H]2CSSC[C@H](NC(=O)[C@H](CCC(N)=O)NC(=O)[C@H](Cc3c[nH]c4ccccc34)NC1=O)C(=O)N[C@@H](Cc1ccc(OCCN(C)C)cc1)C(=O)N[C@@H](Cc1ccc3ccccc3c1)C(=O)NC1(CCOCC1)C(=O)N[C@H](C(=O)N[C@@H](C)C(=O)N[C@H](CC(C)C)C(N)=O)CCC(=O)NCCCCC(=O)N2 [compound 33] (Ac-KWQCY(Me2NCH2CH2)[2Nal][Thp]EA[dL]-NH2; linker 1-4-8 via X1),"remaining at 1 h, 1 µM",[1],100%
same,"remaining at 2 h, 1 µM",[1],100%
same,"remaining at 4 h, 1 µM",[1],85%
same,"remaining at 1 h, 1 µM",[2],100%
same,IC50,[3],0.56 nM
same,Chemical stability (relative purity loss) Buffer pH 1.2,[4],5.9%
same,Chemical stability (relative purity loss) Buffer pH 6.5,[4],0.5%
same,Chemical stability (relative purity loss) Buffer pH 7.4,[4],0.1%
same,solubility at 2 h,[5]; [6],≥ 1000 µg/mL
same,solubility at 2 h,[5]; [7],≥ 890 µg/mL
same,solubility at 2 h,[5]; [8],640 µg/mL
same,solubility at 2 h,[5]; [9],130 µg/mL
CC(=O)N[C@H]1CCCCNC(=O)[C@@H]2CSSC[C@H](NC(=O)[C@H](CCC(N)=O)NC(=O)[C@H](Cc3c[nH]c4ccccc34)NC1=O)C(=O)N[C@@H](Cc1ccc(OCCN)cc1)C(=O)N[C@@H](Cc1ccc3ccccc3c1)C(=O)NC1(CCOCC1)C(=O)N[C@H](C(=O)N[C@@H](C)C(=O)N[C@H](CC(C)C)C(N)=O)CCC(=O)N(C)CCCCC(=O)N2 [compound 34] (Ac-KWQC[AEF][2Nal][Thp]EA[dL]-NH2; linker 1-4-8 via X3),"remaining at 1 h, 1 µM",[1],100%
same,"remaining at 2 h, 1 µM",[1],99%
same,"remaining at 4 h, 1 µM",[1],96%
same,"remaining at 1 h, 1 µM",[2],84%
same,IC50,[3],0.57 nM
same,Chemical stability (relative purity loss) Buffer pH 1.2,[4],7.9%
same,Chemical stability (relative purity loss) Buffer pH 6.5,[4],0.0%
same,Chemical stability (relative purity loss) Buffer pH 7.4,[4],0.3%
same,solubility at 2 h,[5]; [6],≥ 970 µg/mL
same,solubility at 2 h,[5]; [7],≥ 910 µg/mL
same,solubility at 2 h,[5]; [8],270 µg/mL
same,solubility at 2 h,[5]; [9],140 µg/mL
CC(=O)NCCCC[C@@H]1NC(=O)[C@H](Cc2c[nH]c3ccccc23)NC(=O)[C@@H](N(C)C)CCCCNC(=O)[C@@H]2CSSC[C@H](NC1=O)C(=O)N[C@@H](Cc1ccc(OCCN(C)C)cc1)C(=O)N[C@@H](Cc1ccc3ccccc3c1)C(=O)N[C@@](C)(CCCCN(C)C)C(=O)N[C@H](C(=O)N[C@@H](CC(N)=O)C(=O)N[C@@H](Cc1cccnc1)C(=O)N(C)CC(N)=O)CCC(=O)NCCCCC(=O)N2 [compound 36] ([Ava]C[X2]WK(Ac)CY(Me2NCH2CH2)[2Nal][αMeLys(Me2)]EN[3Pal][Sar]-NH2; disulfide 2-6; lactam N-10),"remaining at 1 h, 1 µM",[1],97%
same,"remaining at 2 h, 1 µM",[1],93%
same,"remaining at 4 h, 1 µM",[1],92%
same,"remaining at 1 h, 1 µM",[2],95%
same,IC50,[3],0.5 nM
same,Chemical stability (relative purity loss) Buffer pH 1.2,[4],2.6%
same,Chemical stability (relative purity loss) Buffer pH 6.5,[4],1.1%
same,Chemical stability (relative purity loss) Buffer pH 7.4,[4],0.9%
same,solubility at 2 h,[5]; [6],≥ 1010 µg/mL
same,solubility at 2 h,[5]; [7],≥ 1100 µg/mL
same,solubility at 2 h,[5]; [8],≥ 1080 µg/mL
same,solubility at 2 h,[5]; [9],≥ 1150 µg/mL
CC(C)C[C@@H](NC(=O)[C@H](CC(N)=O)NC(=O)[C@@H]1CC(=O)N(C)CCCCCC(=O)N[C@H]2CSSC[C@H](NC(=O)[C@H](CCC(N)=O)NC(=O)[C@H](Cc3c[nH]c4ccccc34)NC(=O)[C@H]([C@@H](C)O)NC(=O)[C@H](CC(N)=O)NC2=O)C(=O)N[C@@H](Cc2ccc(OCCN(C)C)cc2)C(=O)N[C@@H](Cc2ccc3ccccc3c2)C(=O)N[C@@](C)(CC(C)C)C(=O)N1)C(N)=O [compound 40] ([X4]CNTWQCY(Me2NCH2CH2)[2Nal][αMeL]DN[dL]-NH2; disulfide 2-7; lactam N-11),"remaining at 1 h, 1 µM",[1],77%
same,"remaining at 2 h, 1 µM",[1],70%
same,"remaining at 4 h, 1 µM",[1],54%
same,"remaining at 1 h, 1 µM",[2],12%
same,IC50,[3],1 nM
same,Chemical stability (relative purity loss) Buffer pH 1.2,[4],8.3%
same,Chemical stability (relative purity loss) Buffer pH 6.5,[4],1.3%
same,Chemical stability (relative purity loss) Buffer pH 7.4,[4],3.0%
same,solubility at 2 h,[5]; [6],< 10 µg/mL
same,solubility at 2 h,[5]; [7],< 10 µg/mL
same,solubility at 2 h,[5]; [8],< 10 µg/mL
same,solubility at 2 h,[5]; [9],< 10 µg/mL
CC(=O)N[C@H]1CCCCNC(=O)[C@@H]2CSSC[C@H](NC(=O)[C@H](CCC(N)=O)NC(=O)[C@H](Cc3c[nH]c4ccccc34)NC1=O)C(=O)N[C@@H](Cc1ccc(OCCN)cc1)C(=O)N[C@@H](Cc1ccc3ccccc3c1)C(=O)N[C@@](C)(CC(C)C)C(=O)N[C@H](C(=O)N[C@@H](C)C(=O)N[C@H](CC(C)C)C(N)=O)CCC(=O)N(C)CCCCC(=O)N2 [compound 44] (Ac-KWQC[AEF][2Nal][αMeL]EA[dL]-NH2; linker 1-4-8 via X3),"remaining at 1 h, 1 µM",[1],64%
same,"remaining at 2 h, 1 µM",[1],61%
same,"remaining at 4 h, 1 µM",[1],59%
same,"remaining at 1 h, 1 µM",[2],88%
same,IC50,[3],1.16 nM
same,Chemical stability (relative purity loss) Buffer pH 1.2,[4],4.1%
same,Chemical stability (relative purity loss) Buffer pH 6.5,[4],0.1%
same,Chemical stability (relative purity loss) Buffer pH 7.4,[4],0.2%
same,solubility at 2 h,[5]; [6],< 10 µg/mL
same,solubility at 2 h,[5]; [7],< 10 µg/mL
same,solubility at 2 h,[5]; [8],< 10 µg/mL
same,solubility at 2 h,[5]; [9],< 10 µg/mL
